Consider 52 compounds from PubChem BioAssay AID1996.

A word on the kinetic solubility: it is the concentration staying in solution when a stock, usually in DMSO, is diluted into the medium.

The structures appear in SMILES notation. ≈ marks a conversion by molar mass, not a printed value.

The conditions of this data set: buffer; pH 7.4; 200.0 µM.
Take `Cc1ccc(NC(=O)C/C(N)=N/O)cc1Cl`: the kinetic solubility is > 36.3 µg/mL.

For `Cc1cc(C)cc(C(N)=Nc2cccc(C#N)c2)c1`, the solubility (kinetic) is > 37.4 µg/mL.

`Cc1ccc(C)n1CCN1CCN(C(=O)CC#N)CC1`: the kinetic solubility was > 41.2 µg/mL.

As for `Cc1ccc(CNC(=O)COC(=O)c2cc(C)oc2C)cc1`, the kinetic solubility amounted to 4.4 µg/mL (≈ 14.6 µM).

Consider `O=C(O)C1CC1C(=O)Nc1nc2c(Cl)cccc2s1` (configuration not stated), for which the solubility (kinetic) is > 44.5 µg/mL.

`c1ccc2c(c1)CCc1ccccc1C2=C1CCNCC1` had a kinetic solubility of 30.7 µg/mL (≈ 111 µM).

Take `CN(c1ccccc1C(=O)NCc1ccccc1Cl)S(=O)(=O)c1ccccc1`: the kinetic solubility worked out at 31.3 µg/mL (≈ 75.4 µM).

`O=c1c2[nH]c3ccc(F)cc3c2ncn1CC1CCCO1` (configuration not stated) gave a kinetic solubility of 3.9 µg/mL (≈ 13.6 µM).

`Cc1cnc(C(=O)Nc2ccc(OC(F)(F)F)cc2)cn1` registered a solubility (kinetic) of 2.6 µg/mL (≈ 8.75 µM). This solubility kinetic is about 1.5-fold lower than that of the compound before.

Regarding `NC1=NC(=O)/C(=C/c2ccc(Cl)cc2Cl)S1`, the solubility (kinetic) turned out to be 1.3 µg/mL (≈ 4.76 µM).

`O=C(CN1CCOCC1)Nc1ccc([N+](=O)[O-])cc1Br` displayed a kinetic solubility of 7.3 µg/mL (≈ 21.2 µM).

On to `Clc1ccccc1-c1nc(-c2ccncc2)no1`, for which the kinetic solubility turned out to be 7 µg/mL (≈ 27.2 µM).

The compound `O=C(COC(=O)c1cccs1)Nc1ccc(Cl)cn1` had a solubility (kinetic) of 3.1 µg/mL (≈ 10.4 µM).

As to `COc1cccc(C(=O)OCC(=O)NCCC2=CCCCC2)c1`, the kinetic solubility is 25.8 µg/mL (≈ 81.3 µM).

`O=[N+]([O-])c1ccc(Nc2nccc(Cl)n2)cc1` registered a solubility (kinetic) of 1.4 µg/mL (≈ 5.59 µM).

Turning to `Cc1ccc(C)c(Cn2cnc3c(oc4ccccc43)c2=O)c1`, the solubility (kinetic) is < 0.3 µg/mL.

Compound `O=C(c1ccco1)N1CCn2cccc2C1c1ccccc1` (configuration not stated) displayed a kinetic solubility of 42 µg/mL (≈ 144 µM).

For the compound `Cc1ccc(NC(=O)C2CC(=O)N(CCc3ccccc3)C2)c(C)c1` (configuration not stated), the kinetic solubility was found to be 42 µg/mL (≈ 125 µM).

For the compound `O=C1N/C(=N\c2ccccn2)SC1Cc1ccccc1Cl` (configuration not stated), the solubility (kinetic) was < 0.2 µg/mL.

Turning to `O=C(NCCC(=O)N1CCCCC1)c1ccc(Br)cc1`, the kinetic solubility was > 50.9 µg/mL.

`CC(OC(=O)c1ccc(Cl)nc1)C(=O)NC1CCCC1` (configuration not stated): the kinetic solubility amounted to 24.7 µg/mL (≈ 83.2 µM).

Take `Cc1cccc(NC(=O)/C(C#N)=C/c2ccccc2O)n1`: the kinetic solubility came to 20.9 µg/mL (≈ 74.8 µM).

The compound `O=CC(Cl)P(=O)(N1CCOCC1)N1CCOCC1` (configuration not stated) came in with a solubility (kinetic) of 32.5 µg/mL (≈ 110 µM).

Compound `O=C(Nc1ccccc1C(=O)NCCCN1CCOCC1)c1ccc(F)cc1` displayed a kinetic solubility of 55.4 µg/mL (≈ 144 µM).

With `O=C(COC(=O)c1cc(=O)[nH]c2ccccc12)Nc1ccc(F)cc1F`, the solubility (kinetic) is 13.7 µg/mL (≈ 38.2 µM).

With `COC(=O)c1ccc(CN2CCCCC2)cc1`, the kinetic solubility stood at 28.9 µg/mL (≈ 124 µM).

In turn, `COc1ccc(C(=O)n2cnc3ccccc32)cc1Br` showed a kinetic solubility of 46.7 µg/mL (≈ 141 µM).

Compound `CCc1ccccc1OCC(=O)NCC1COc2ccccc2O1` (configuration not stated) displayed a kinetic solubility of 14.9 µg/mL (≈ 45.5 µM). This solubility kinetic lies about 3.1-fold lower than the previous one.

In the case of `Nc1cc(=O)[nH]c(SCC(=O)Nc2ccc([N+](=O)[O-])cc2)n1`, the solubility (kinetic) is > 48.2 µg/mL.

Consider `COc1ccc(NC(=O)CN2C(=O)C(C)Oc3ccc(C)cc32)cc1` (configuration not stated), for which the solubility (kinetic) was found to be 9.6 µg/mL (≈ 28.2 µM).

The compound `C=C(c1ccccc1)c1ccc(N(C)C)cc1` had a solubility (kinetic) of 2.3 µg/mL (≈ 10.3 µM). Compared with the last compound, the solubility kinetic is about 4.2-fold lower.

With `S=C(NCC(c1ccco1)N1CCCC1)Nc1ccccc1` (configuration not stated), the solubility (kinetic) was > 47.3 µg/mL.

Consider `CC1CN(C(=O)COc2ccc3ccccc3c2)CC(C)O1` (configuration not stated), for which the kinetic solubility is > 44.9 µg/mL.

`COc1ccc(NC(C)=O)cc1NC(=O)c1ccc(Cl)cc1` displayed a solubility (kinetic) of 17.2 µg/mL (≈ 54 µM).

In the case of `O=C(O)/C(=C\c1ccco1)NC(=O)c1ccc(Br)o1`, the solubility (kinetic) is > 48.9 µg/mL.

On to `O=C(O)c1cccc(S(=O)(=O)Nc2ccc(-c3ccccc3)cc2)c1`, for which the kinetic solubility was > 53 µg/mL.

In turn, `CC1(CCl)CN1S(=O)(=O)c1ccccc1` (configuration not stated) had a solubility (kinetic) of 30.8 µg/mL (≈ 125 µM).

In the case of `COc1ccc(-c2csc(NC(=O)c3ccccc3F)n2)cc1`, the kinetic solubility was determined as 0.5 µg/mL (≈ 1.52 µM).

As for `COc1ccc(CC(=O)N2CCC(c3ccccc3)C2)cc1` (configuration not stated), the solubility (kinetic) came to 40.8 µg/mL (≈ 138 µM).

Take `COC(=O)c1sccc1NC(=O)Nc1ccc(F)cc1F`: the kinetic solubility stood at 26.6 µg/mL (≈ 85.2 µM).

Take `NS(=O)(=O)c1ccc(NC(=O)c2ccc3c(c2)CCCC3)cc1`: the solubility (kinetic) is < 0.4 µg/mL.

On to `Cc1c(Cl)cccc1NC(=S)NCCc1ccc(F)cc1`, for which the kinetic solubility stood at 1.2 µg/mL (≈ 3.72 µM).

As for `CCC(Sc1nc(C)cc(C)n1)C(=O)Nc1nccs1` (configuration not stated), the solubility (kinetic) came out at 43.1 µg/mL (≈ 140 µM). Against the preceding compound, the solubility kinetic is about 36-fold higher.

`Oc1c(CN2CCCC(C(F)(F)F)C2)cc(Cl)c2ccccc12` (configuration not stated) yielded a solubility (kinetic) of 4.1 µg/mL (≈ 11.9 µM). This solubility kinetic lies about 11-fold lower than the previous one.

In the case of `O=C(CN1CCN(Cc2ccccc2)CC1)N/N=C/c1cccnc1`, the kinetic solubility is > 50.6 µg/mL.

As for `Cc1ccc(NC(=O)CN2C(=O)NC3(CCCc4ccccc43)C2=O)c([N+](=O)[O-])c1` (configuration not stated), the solubility (kinetic) was determined as 36.5 µg/mL (≈ 89.4 µM).

For `Cn1c(C(=O)N[C@@H](Cc2ccccc2)C(=O)O)cc2cc(F)ccc21`, the kinetic solubility is > 51.1 µg/mL.

In turn, `Cc1c(Cl)cccc1Nc1ncccc1C(=O)O` yielded a kinetic solubility of 34 µg/mL (≈ 129 µM).

Regarding `CC(=O)c1nc2ccccc2n1Cc1ccccc1`, the solubility (kinetic) was found to be 14.5 µg/mL (≈ 57.9 µM).

In turn, `C/C(=N\O)c1ccn(S(=O)(=O)c2ccc(Cl)cc2)c1` displayed a solubility (kinetic) of 8.4 µg/mL (≈ 28.1 µM).

For the compound `CCOc1cc(S(=O)(=O)NCC2CCCO2)ccc1F` (configuration not stated), the kinetic solubility is > 45.5 µg/mL.

The compound `CCCc1cc(=O)[nH]c(SCC(=O)c2c(N)n(C3CC3)c(=O)[nH]c2=O)n1` showed a kinetic solubility of 30.7 µg/mL (≈ 81.3 µM).
